Experimental findings from the NIST ThermoML archive (doi:10.1016/j.jct.2014.04.025) are described below.

± gives the expanded uncertainty stated by the source.

The conditions of the data set: 101.33 kPa, Liquid, Vibrating tube method.

Consider `CCCCCCC` [heptane], for which, where the note is “298.15 K”, the mass density was determined as 679.54 ± 1 kg/m3.

Consider `CCCCCCn1cc[n+](C)c1.N#C[B-](C#N)(C#N)C#N` [1-hexyl-3-methylimidazolium tetracyanoborate], for which the mass density (308.15 K) was found to be 983.03 ± 1 kg/m3.

For the compound `c1ccsc1` [thiophene], the mass density (298.15 K) worked out at 1058.92 ± 1 kg/m3.

`CCCC[N+]1(C)CCCC1.O=S(=O)([O-])C(F)(F)F` [1-butyl-1-methylpyrrolidinium trifluoromethanesulfonate]: the mass density (298.15 K) was 1252.75 ± 1.1 kg/m3.

On to `c1ccc2sccc2c1` [benzo[b]thiophene], for which the mass density was 1150.81 ± 1 kg/m3 (308.15 K), 1141.83 ± 1 kg/m3 (318.15 K) and 1132.85 ± 1 kg/m3 (328.15 K).

For `CCCC[N+]1(C)CCCC1.N#CC(=C=[N-])C#N` [1-butyl-1-methylpyrrolidinium tricyanomethanide], under “298.15 K”, the mass density came out at 1006.91 ± 1.3 kg/m3.

On to `CCCO` [propan-1-ol], for which the mass density (298.15 K) worked out at 799.52 ± 1 kg/m3.

As for `CC(C)=O` [acetone], the mass density (298.15 K) stood at 785.32 ± 1 kg/m3.

A word on the mass density: it is mass per unit of volume.
